# Measured values published in patent US20150203561A1, “BETA THYMOSIN FRAGMENTS” (REGENERX BIOPHARMACEUTICALS, INC., priority 2008, published 2015).
# “Also recorded” adds a separate entry of the source.
# Legend:
# human dermal fibroblasts [1] = experiment: Collagen secretion, colorimetric assay; format: cell-based; set-up: key to Stimulates collagens / Inhibits collagens: P = active; U = useful; settings: summary of peptide uses
# Method: (§1) Effect of Tb4 and peptides on collagen secretion • Human dermal fibroblasts (Fb) were cultured to 80% confluence • Cells were treated with 1 μg/ml Tb4 or peptides for 24, 48, or 72 hours. Cells were treated once/day. • Culture supernatants (n=3, experiments repeated 5 times) were assayed for collagen secretion using a colorimetric assay that detects collagen types I, II, III, IV and V, and possibly VII
# human dermal Fb = experiment: CHX-induced apoptosis (APOPercentage dye) in human dermal Fb; format: cell-based; set-up: key to Inhibits apoptosis: P = active; U = useful; settings: for Inhibits apoptosis: summary of peptide uses; for Protection of dermal Fb against CHX-induced apoptosis: 1 μg/ml, 0.002% CHX for 2 hours
# Method: Effect of Tb4 and Peptide 3A on CHX-induced apoptosis • Human dermal Fb were cultured to 80% confluence • Fb were treated with 0.002% CHX+1 μg/ml Tb4 or peptide 3A, 4A or 6A for 1.5 hours • APOPercentage “dye” was added to the Fb cultures at a 1:50 dilution for an additional 30 minutes • Excess dye was washed from the cells, and digital images were captured. Cells dyed red were apoptotic • Adobe Photoshop was used to calculate the number of red pixels in six digitized images for each treatment • Statistical analysis was done using the t-test
# [2] = system: tissue damage caused by UV radiation; experiment: UV radiation tissue damage (summary table); set-up: key: P = active; U = useful; settings: summary of peptide uses
# [3] = system: TNF-a-stimulated IL8 secretion; experiment: Suppression of inflammation (summary table; IL-8 secretion); format: cell-based, human; set-up: key: P = active; U = useful; settings: summary of peptide uses
# Method: (§2) Analysis of IL-8 Secretion • Human corneal epithelial cells or dermal Fb were cultured to 80% confluence • Cells were pre-treated with 1 μg/ml Tb4 or peptides for one hour • Cells were stimulated with 10 ng/ml TNF-a in the presence or absence of Tb4 or peptides • Culture medium was analyzed for secreted IL-8 by ELISA (n=3, experiments repeated twice) • Data was analyzed using the t-test
# cell migration = experiment: Stimulation of migration (summary table); format: cell-based; set-up: key: P = active; U = useful; settings: summary of peptide uses
# neuron survival = experiment: Promotion of neuron survival (summary table); set-up: key: P = active; U = useful; settings: summary of peptide uses
# L1 = experiment: Stimulation of L1 production (summary table); set-up: key: P = active; U = useful; settings: summary of peptide uses
# human dermal fibroblasts [4] = experiment: Elastin secretion, colorimetric assay; format: cell-based; set-up: key to Stimulates Elastin: P = active; U = useful; settings: for Stimulates Elastin: summary of peptide uses
# Method: as §1, with “elastin” for “collagen”, “6” for “5”, “• Data was analyzed using the t-test” for “that detects collagen types I, II, III, IV and V, and possibly VII”
# neurite outgrowth = experiment: Promotion of neurite outgrowth (summary table); set-up: key: P = active; U = useful; settings: summary of peptide uses
# [5] = system: p65 subunit of NFkB in human corneal epithelial cells; experiment: NFkB nuclear translocation; format: cell-based; set-up: key: P = active; U = useful; settings: summary of peptide uses
# Method: Analysis of NFkB Nuclear Translocation • Human corneal epithelial cells were cultured to 80% confluence • Cells were pre-treated with 1 μg/ml Tb4 or peptide 4A or 6A for one hour • Cells were stimulated with 10 ng/ml TNF-a in the presence or absence of Tb4 or peptides for 15 minutes • Cells were fixed and labeled with antibodies to the p65 subunit of NFkB
# human dermal fibroblasts [6] = experiment: LDH cytotoxicity assay in human dermal fibroblasts exposed to cytotoxic agents; format: cell-based; set-up: key to Protects from cytotoxicity: P = active; U = useful; settings: for Protects from cytotoxicity: summary of peptide uses
# Method: Dose Response Analysis of Peptide 3A • Human dermal fibroblasts (Fb, Cascade Biologics, OR) were cultured to 80% confluence • 2 ml CHX (0.002%) in basal medium ±1 μg/ml Tb4 or 1.0, 0.1, 0.01, or 0.001 μg/ml peptide 3A was added to Fb for 1, 2, 3, or 4 hours • 100 μl culture medium (n=4) was added to 100 μl LDH reagent and incubated at room temperature for 20 minutes • OD500 nm was read and averages ±SEM were calculated • Data was analyzed with probability of p≦0.05
# [7] = system: Transformed human corneal epithelial cells (HCET); experiment: Collagen type IV secretion ELISA; format: cell-based; set-up: key to Stimulates collagen IV: P = active; U = useful; settings: summary of peptide uses
# Method: Effect of Tb4 and peptides on collagen type IV secretion • Transformed human corneal epithelial cells (HCET) were cultured to 80% confluence • Cells were treated with 1 μg/ml Tb4 or peptides for 24 hours • Culture supernatant samples (n=3 per experiment, total of 4 experiments) were analyzed using a collagen type IV ELISA • Data was analyzed using the t-test
# dermal Fb = experiment: TNF-a-stimulated IL-8 secretion ELISA, dermal fibroblasts; format: cell-based, human; settings: 1 μg/ml, 10 ng/ml TNF-a
# Method: as §2
# T-lymphocyte = experiment: Impaired T-lymphocyte blastogenic response (summary table); set-up: key: P = active; U = useful; settings: summary of peptide uses
# [8] = system: human gingival fibroblasts; experiment: CHX-induced apoptosis in human gingival fibroblasts; format: cell-based; settings: 0.002% CHX for 2 hours
# [9] = system: Human corneal epithelial cells; experiment: TNF-a-stimulated IL-8 secretion ELISA, corneal epithelial cells; format: cell-based; settings: 1 μg/ml, 10 ng/ml TNF-a
# Method: as §2
# IKKb = biological target: T1, IKKb (Homo sapiens, UniProt O14920); experiment: Cell-free IkBa phosphorylation ELISA (NFkB signaling pathway); format: biochemical; set-up: key to Inhibits IkBa phosphorylation: P = active; U = useful; settings: summary of peptide uses
# T1 sequence (O14920 1-756): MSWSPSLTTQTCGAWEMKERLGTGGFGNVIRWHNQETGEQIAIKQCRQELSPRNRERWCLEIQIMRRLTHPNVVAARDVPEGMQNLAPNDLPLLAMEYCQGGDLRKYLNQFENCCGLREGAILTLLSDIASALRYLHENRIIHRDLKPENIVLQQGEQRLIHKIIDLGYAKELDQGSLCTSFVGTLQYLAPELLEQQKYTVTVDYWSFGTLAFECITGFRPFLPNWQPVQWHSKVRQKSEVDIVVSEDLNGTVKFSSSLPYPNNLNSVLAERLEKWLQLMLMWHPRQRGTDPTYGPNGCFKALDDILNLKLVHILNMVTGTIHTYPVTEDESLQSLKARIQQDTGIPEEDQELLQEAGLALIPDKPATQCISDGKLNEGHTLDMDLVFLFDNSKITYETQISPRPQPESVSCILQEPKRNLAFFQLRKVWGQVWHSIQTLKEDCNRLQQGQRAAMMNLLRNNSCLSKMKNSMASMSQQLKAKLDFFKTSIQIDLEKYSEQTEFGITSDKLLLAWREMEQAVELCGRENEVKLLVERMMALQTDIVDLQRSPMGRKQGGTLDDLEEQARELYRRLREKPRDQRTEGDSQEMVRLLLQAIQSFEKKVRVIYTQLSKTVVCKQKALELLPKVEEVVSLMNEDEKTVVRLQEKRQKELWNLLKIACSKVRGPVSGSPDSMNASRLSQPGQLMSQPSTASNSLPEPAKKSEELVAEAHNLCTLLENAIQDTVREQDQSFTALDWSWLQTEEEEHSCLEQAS
# Method: Effect of Tb4 and peptides on the NFkB signaling pathway • Cell-free assay • Prepared 1.0, 0.1, and 0.01 ng/ml solutions of Tb4 or peptides in kinase buffer supplied with kit • Added 10 μl of the solutions to wells of a 96-well plate coated with lkBa • IKKb (20 mU) was added to wells • 90 μl kinase reaction buffer (containing ATP) was added to the wells • ELISA to detect phosphorylated lkBa
# [10] = system: human gingival fibroblasts; experiment: CHX-induced cytotoxicity in human gingival fibroblasts; format: cell-based
# [11] = 1 μg/ml, 0.002% CHX, 1, 2, or 3 hours exposure
# [12] = 1 μg/ml, 0.002% CHX, 2 hour exposure
Substance,Inhibits collagens (human dermal fibroblasts [1]),Inhibits apoptosis (human dermal Fb),Inhibits tissue damage caused by UV radiation [2],Protects tissue from UV radiation damage [2],Suppresses inflammation [3],Stimulates Migration (cell migration),Promotes neuron survival (neuron survival),Stimulates L1 production (L1),Stimulates Elastin (human dermal fibroblasts [4]),Promotes neurite outgrowth (neurite outgrowth),Inhibits NFkB translocation [5],Protects from cytotoxicity (human dermal fibroblasts [6]),Suppression of TNF-a-stimulated IL8 secretion (dermal Fb),Restores impaired T-lymphocyte blastogenic response (T-lymphocyte),also measured
H-SDKPDMAEIEKFDKSKLKKTET-OH [Fragment Aa],U,U,U,U,U,U,U,U,U,U,U,U,,,Stimulates collagen IV [7]: U
"Thymosin β4 [Tb4, reference compound]",,P,P,P,P,P,P,P,P,P,P,P,suppress,P,"Protection of dermal Fb against CHX-induced apoptosis (human dermal Fb): protect; Protection of gingival Fb against CHX-induced apoptosis [8]: protect; Secretion of elastin (human dermal fibroblasts [4]; dermal Fb, 1 μg/ml once/day, 24, 48, or 72 hours): stimulate; Suppression of TNF-a-stimulated IL8 secretion [9]: suppress; Protection of Fb against the cytotoxic effects of CHX (LDH) (human dermal fibroblasts [6]; [11]): protect; Protection of Fb against the cytotoxic effects of CHX (LDH) (human dermal fibroblasts [6]; [12]): protect"
Ac-Ser-Asp-Lys-Pro-OH (Ac-SDKP-OH) [Peptide 2B],,,U,U,P,P,U,U,,U,,,suppress,,
H-Leu-Lys-Lys-Thr-Glu-Thr-OH (H-LKKTET-OH) [Peptide 1A],,,U,U,P,,U,U,,U,,,,,Suppression of TNF-a-stimulated IL8 secretion [9]: suppress
Ac-Leu-Lys-Lys-Thr-Glu-Thr-Gln-Glu-Lys-Asn-Pro-Leu-Pro-Ser-Lys-Glu-Thr-Ile-Glu-Gln-Glu-Lys-Gln-Ala-Gly-Glu-Ser-OH (Ac-LKKTETQEKNPLPSKETIEQEKQAGES-OH) [Fragment Db],U,,U,U,,,U,U,U,U,,,,U,Inhibits IkBa phosphorylation (IKKb): U
H-SDKPDMAEIEKFDKSKLKKTETQ-OH [Fragment Ba],U,U,U,U,U,U,U,U,U,U,U,U,,,Stimulates collagen IV [7]: U
H-SDKPDMAEIEKFDKS-OH [Peptide 3A],,P,U,U,P,,U,U,,U,,P,suppress,,"Protection of dermal Fb against CHX-induced apoptosis (human dermal Fb): protect; also recorded: can inhibit; Protection of gingival Fb against cytotoxicity induced by CHX ([10]; 0.002% CHX): protects; Inhibition of chlorhexidine digluconate and Peridex induced cytotoxicity ([10]; cultured human gingival fibroblasts, Peridex diluted to 0.002% CHX): can inhibit; Protection of gingival Fb against CHX-induced apoptosis [8]: protect; also recorded: can inhibit; Protection of Fb against the cytotoxic effects of CHX (LDH), dose response analysis (human dermal fibroblasts [6]; 1.0 μg/ml peptide, 0.002% CHX, 2 hours): protects; Protection of Fb against the cytotoxic effects of CHX (LDH) (human dermal fibroblasts [6]; [11]): protect; Protection of Fb against the cytotoxic effects of CHX (LDH) (human dermal fibroblasts [6]; [12]): protect; Protection of Fb against the cytotoxic effects of CHX (LDH) (human dermal fibroblasts [6]; 0.002% and 0.005% CHX, 2 hours exposure): protects; Protection of Fb against the cytotoxic effects of benzalkonium chloride (LDH) (human dermal fibroblasts [6]; 0.01% benzalkonium chloride): protects; Protection of Fb against the cytotoxic effects of hydrogen peroxide (LDH) (human dermal fibroblasts [6]; 1% hydrogen peroxide): protects; Protection of Fb against the cytotoxic effects of ethanol (LDH) (human dermal fibroblasts [6]; 10% ethanol): does not protect; Inhibition of chlorhexidine digluconate, hydrogen peroxide, and benzalkonium chloride-induced cytotoxicity (human dermal fibroblasts [6]; cultured human dermal fibroblasts, up to 4 hours exposure): can inhibit"
H-Leu-Lys-Lys-Thr-Glu-Thr-Gln-Glu-Lys-Asn-Pro-Leu-Pro-Ser-Lys-Glu-Thr-Ile-Glu-Gln-Glu-Lys-Gln-Ala-Gly-Glu-Ser-OH (H-LKKTETQEKNPLPSKETIEQEKQAGES-OH) [Fragment Da],U,,U,U,,,U,U,U,U,,,,U,Inhibits IkBa phosphorylation (IKKb): U
